Experimental data: patent US20180179174A1, “12H-BENZO[b]XANTHEN-12-ONES, COMPOSITIONS CONTAINING, AND USES OF, SAME” (Thesan Pharmaceuticals, Inc., priority 2015, published 2018)

Experiments:
[1] = target: T1, Aryl Hydrocarbon Receptor (Homo sapiens, UniProt P35869); test: AhR activation, luciferase reporter (plox-XRE TATA-Luc) in HEP G2 cells; assay type: cell-based; conditions: 24 h, 1-10 uM
T1 construct: endogenous in cells; host or cells: normal human keratinocytes (NHK) transduced with the reporter lentivector plox-XRE TATA-Luc
T1 sequence (P35869 11-848): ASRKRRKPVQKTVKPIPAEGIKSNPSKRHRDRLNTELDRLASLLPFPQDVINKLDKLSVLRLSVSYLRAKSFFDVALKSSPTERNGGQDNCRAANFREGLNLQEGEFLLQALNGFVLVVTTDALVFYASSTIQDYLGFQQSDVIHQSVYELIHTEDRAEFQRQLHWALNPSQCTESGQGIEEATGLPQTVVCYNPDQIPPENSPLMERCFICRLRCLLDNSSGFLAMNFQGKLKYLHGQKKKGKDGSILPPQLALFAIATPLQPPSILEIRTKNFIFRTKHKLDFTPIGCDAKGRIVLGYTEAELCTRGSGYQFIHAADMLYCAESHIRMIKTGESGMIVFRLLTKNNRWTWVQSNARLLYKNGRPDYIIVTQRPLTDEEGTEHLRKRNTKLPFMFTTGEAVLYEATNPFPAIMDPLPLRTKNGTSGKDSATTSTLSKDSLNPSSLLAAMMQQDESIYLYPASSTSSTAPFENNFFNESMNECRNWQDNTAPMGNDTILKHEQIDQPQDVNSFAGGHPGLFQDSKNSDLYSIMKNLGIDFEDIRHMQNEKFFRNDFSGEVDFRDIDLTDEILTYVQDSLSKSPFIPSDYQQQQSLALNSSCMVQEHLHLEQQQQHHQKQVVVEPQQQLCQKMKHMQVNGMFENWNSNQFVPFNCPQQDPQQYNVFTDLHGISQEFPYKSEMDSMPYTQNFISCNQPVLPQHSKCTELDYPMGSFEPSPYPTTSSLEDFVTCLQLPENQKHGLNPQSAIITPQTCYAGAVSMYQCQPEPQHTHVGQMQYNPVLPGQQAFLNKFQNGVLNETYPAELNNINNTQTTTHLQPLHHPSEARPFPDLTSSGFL
Protocol: AhR activation is measured in HEP G2 cells (hepatocytes, Hep G2 is a human liver carcinoma cell line) stably transfected with the lentivector plox-XRE TATA-Luc. The Hep G2 cells are cultured in a growing media consisting of DMEM (Gibco)+10% fetal bovine serum+penicillin+streptomycin. At D0, the Hep G2 cells are seeded into 12-well plates in proportions of approximately 30,000 cells/cm^2. After 24 h, the medium is replaced with fresh medium and the cells are transduced with the lentivector plox-XRE TATA-Luc. After 48 h, the cells are subcultured and maintained in culture, and tested for their reactivity to 3-phenyl-1H-benzo[f]chromen-1-one. The tests are carried out using the luciferase reporter assay system kit from Promega. At D0, the cells are seeded at a density of approximately 60% confluence, and then treated, at D1, with the test substance diluted to various concentrations in the appropriate culture medium. At D2, the cells are lysed in CLB buffer, and the lysate is clarified by centrifugation for 5 min at 10 000 g. The luciferase activity is measured in 20 microliters of lysate as recommended by the supplier, using the luminoskan luminometer (Thermo). […] Data is processed and EC50's can be calculated from standard data monitoring software.

[2] = target: T1, Aryl Hydrocarbon Receptor; test: AhR activation, luciferase reporter (plox-XRE TATA-Luc) in normal human keratinocytes; assay type: cell-based; conditions: NHK-plox-XRE TATA-Luc cells, 24 h, 1-10 uM
Protocol: AhR activation is also measured in human skin cells such as normal human keratinocytes (NHK cells) or A431 epidermoid cells stably transfected with the lentivector plox-XRE TATA-Luc. The NHK cells are cultured in a specific keratinocyte SFM medium (Gibco)+penicillin+streptomycin. At D0, the NHK cells are seeded into 6-well plates in a proportion of approximately 15,000 cells/cm^2. After 24 h, the medium is replaced with fresh medium and the cells are transduced with the lentivector plox-XRE TATA-Luc. After 48 h, the cells are subcultured and maintained in culture, and tested for their reactivity to 3-phenyl-1H-benzo[f]chromen-1-one. The tests are carried out using the luciferase reporter assay system kit from Promega. At D0, the cells are seeded at a density of approximately 60% confluence, and then treated, at D1, with the test substance diluted to various concentrations in the appropriate culture medium. At D2, the cells are lysed in CLB buffer, and the lysate is clarified by centrifugation for 5 min at 10 000 g. The luciferase activity is measured in 20 microliters of lysate as recommended by the supplier, using the luminoskan luminometer (Thermo). […] Data is processed and EC50's can be calculated from standard data monitoring software.

CYP1A1 [3] = test: CYP1A1 activity test (P450-GLO) in HEP G2 or NHK cells; assay type: cell-based, human; conditions: 24 h, 1-10um, control compound
Protocol: The essential methodology for culture and handling of HEP G2 cells and NHK cells has been described in Examples 2 and 3. The tests are carried out using the P450-GLO assay kit from Promega. At D0, the cells are seeded at a density of approximately 60% confluence, and then treated at D1 with the test substance diluted to various concentrations in the appropriate culture medium. At D2, the CYP1A1 activity is measured as recommended by the supplier, using the non-lytic protocol on a cell monolayer.

CYP1A1 [4] = test: Induction of Cyp1A1 in HEP G2 cells (EROD assay); assay type: cell-based; conditions: human, probe 7-ethoxyresorufin (8 μM), HepG2 cells, 1-10 μM range, vs solvent
Protocol: The essential methodology for culture and handling of HEP G2 cells and NHK cells has been described in Examples 2 and 3. HepG2 cells are seeded at between 1×10^4 and 2.5×10^4 cells/well in a 96-well microtitre plate. […] The formation of resorufin is quantified by fluorometry with a fluorescence plate reader. Fluorescence is determined at λex 570 nm and λem 590 nm. The amount of resorufin is calculated from a standard curve generated using 0 to 1 μM resorufin in water at ½ log dilutions. The remaining (i.e. all cells present at the beginning of analysis, since only supernatant is taken to assay EROD) live cells are subsequently utilized for the MIT cytotoxicity assay. MTT is made up in serum-free medium at 5 mg/ml. then added to the cells giving a final concentration of 10% (0.5 mg/ml MTT final) then incubated for 2 h. The medium is carefully removed, then MTT formazan is solubilized by adding 200 μl of DMSO and subsequently mixed on a plate shaker. The absorbance is measured spectrophotometrically at 550 nm and background absorbance at 690 nm is subtracted. A standard curve generated using MTT formazan (dissolved in DMSO) from 0-200 μM (0, 2, 5, 10, 20, 50, 100, 200 μM) is used to calculate the final experimental values which are then expressed as (μmol resorufin/mol MIT formazan) or as fold-induction compared to solvent.

sebaceous glands = test: Mouse ear assay for determination of sebaceous gland prevalence; assay type: in vivo, C57BL/6J male mice; conditions: 0.7% in DMSO:acetone 50:50, 80 ul dermal twice a day for five days, vs controls
Protocol: C57BL/6J male mice (Harlan Models), approximately 4-5 weeks of age, body weight 20-30 g, were acclimatized (individually housed) for 5 days in a 12 hour light/dark cycle standard laboratory environment (T=20-24° C., relative humidity 30-70%, 15-20 air changes per hour) with access to water and standard rodent chow (Harlan Teklad 2014C supplied by Harlan Laboratories Models, S.L.) ad libitum. […] All animals were monitored daily for reaction to the treatment, signs of illness, and behavioral changes. Body weights were recorded before the first administration and immediately prior to sacrifice. Approximately 12 to 16 hours after the final administration on day 5 the mice were sacrificed by i.p. injection of sodium pentobarbital (200 mg/kg) and the ears were collected. Each ear was sectioned into two halves. For each animal, one-half of one ear was fixed, in neutral phosphate-buffered 4% formaldehyde solution (4% formalin). This trimmed section of the ear was then processed, embedded in paraffin wax and stored at room temperature. The remaining half of that ear and the entire opposite ear was frozen at −80° C. Wax mounted ear pieces were sectioned with a microtome and stained with hematoxylin and eosin. Sebaceous glands were identified visually by their structures. […]

O=c1cc(-c2ccccc2)oc2ccc3ccccc3c12 [3-phenyl-1H-benzo[f]chromen-1-one]
induction of the luciferase activity [1]: significant induction | induction (luciferase activity) [2]: significant induction | induction of the CYP1A1 activity (CYP1A1 [3]): significant induction

O=c1c2ccccc2oc2cc3ccccc3cc12 [compound A]
fold induction at 24 h (CYP1A1 [4]): > 20 | number of differentiated sebocytes (sebaceous glands): reduction | number of sebaceous glands (sebaceous glands): clear reduction
